Molecules are shown by their SMILES.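 All cell lines were grown in 96-well plates and treated with compound for 48 hours. GI50 is the concentration that inhibits growth by half. TGI marks complete inhibition of growth.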

The values below come from PubChem BioAssay (NCI).

Experiment in all cases: DTP human tumour cell line panel, 48 h
Assay [1] concerns 786-0 renal.
For assay [2], the system named is DU-145 prostate.
For assay [3], the system named is IGROV1 ovarian.
Assay [4] relates to MCF7 breast.
In assay [5] the test system is SF-268 CNS.
Assay [6] deals with SF-539 CNS.
Assay [7] relates to SK-MEL-5 melanoma.
The test system of assay [8] is SK-OV-3 ovarian.
The test system of assay [9] is SN12C renal.
The subject of assay [10] is SNB-19 CNS.

As to `COc1cc(NS(C)(=O)=O)ccc1Nc1c2ccc(Cl)cc2nc2c(OC)cccc12`, the GI50 in assay [1] was 0.0526 µM; in assay [2], < 0.0143 µM; in assay [3] it was 0.331 µM; in [4], < 0.0161 µM; in [5], 0.131 µM; in assay [6], 0.059 µM. Also, the GI50 in assay [7] is 0.129 µM; in assay [8], 0.117 µM; in assay [9], 0.0628 µM; in [10], 0.135 µM. Further, the TGI was 0.689 µM in assay [1]; 0.505 µM in [2]; 6.89 µM in assay [3]; 13.2 µM in assay [4]; 11.5 µM in assay [5]; 0.681 µM in [6]. Also, the TGI came out at 3.97 µM in assay [7], 2 µM in [8], 3.53 µM in [9] and 22.3 µM in assay [10].

Consider `COc1cc(C(=O)c2ccc3c(c2)OCO3)cc(OC)c1OC`, for which the GI50 in [1] is 10.5 µM; in [2] it was 3.51 µM; in assay [3] it was 1.45 µM; in assay [4], 0.824 µM; in assay [5], 5.56 µM; in [6], 1.95 µM. The GI50 in assay [7] is 1.88 µM; in [8], 2.84 µM; in assay [9], 6.86 µM; in assay [10], 5.07 µM. Besides, the TGI in assay [1] was > 100 µM; in assay [2], > 65.7 µM; in [3], > 45.5 µM; in assay [4], > 100 µM; in [5] it was > 100 µM; in [6], 7.52 µM. The TGI in [7] was > 21.5 µM; in assay [8], 33.1 µM; in assay [9], > 100 µM; in [10] it was > 100 µM.

Regarding `Cc1cc2c(cc1Cl)SC1=CC(=O)N(c3ccccc3)C1=NS2(=O)=O`, the GI50 in assay [1] was 27.5 µM; in assay [2] it was 59.4 µM; in assay [3], 53.9 µM; in assay [4], 39.4 µM; in [5], 92.3 µM; in assay [8], > 100 µM. For the same molecule, the values for the GI50 in [9] and in assay [10] were 32 µM and 54.5 µM, respectively. The concentration for total growth inhibition (TGI) in [1] is 71.6 µM; in assay [2] it was > 100 µM; in assay [3], > 100 µM; in [4], > 100 µM; in assay [5] it was > 100 µM; in [7], 10.8 µM. The TGI in assay [8], in assay [9] and in [10] was > 100 µM each time.

For `Cn1nccc1Nc1nccc(-c2cc3c(s2)C(C)(C)N(CCN2CCOCC2)C3=O)n1`, the GI50 in [1] was 14.7 µM; in assay [2], 25.8 µM; in assay [3], 2.15 µM; in assay [4] it was 24.1 µM; in assay [5], 27.8 µM; in assay [6], 27.9 µM. For the same molecule, the GI50 in assay [7] was 1.31 µM; in assay [8], 17 µM; in assay [9], 17.1 µM; in [10], 41.9 µM. In addition, the TGI in assay [1], in assay [2], in assay [3], in assay [4], in assay [5] and in assay [6] was > 100 µM each time. Moreover, the TGI in assay [7] is 58 µM; in assay [8] it was > 86.2 µM; in assay [9], > 100 µM; in assay [10] it was > 100 µM.

Take `C/C=C(\C)C(=O)N[C@H]1CC[C@]2(C)C3CC[C@@]4(C)C(CC[C@@H]4C(C)N(C)C)C3CCC2[C@H]1OC(C)=O` (some centres undefined): the GI50 was 1.54 µM in [1]; 2.85 µM in assay [2]; 2.38 µM in assay [3]; 1.27 µM in [4]; 1.39 µM in assay [5]; 1.16 µM in assay [6]. Further, the GI50 was 1.05 µM in assay [7], 2.06 µM in [8], 1.7 µM in assay [9] and 2.1 µM in [10]. The TGI in assay [1] stood at 2.95 µM; in [2], 10.9 µM; in [3], 8.86 µM; in assay [4], 2.92 µM; in assay [5], 2.89 µM; in assay [6], 2.53 µM. The TGI in [7] was found to be 2.3 µM; in [8], 4.27 µM; in assay [9], 4.26 µM; in [10], 4.13 µM.

For the molecule `COc1ccc(-c2[nH]c3ccccc3c2C=C(C#N)C#N)cc1`, the GI50 was 0.715 µM in [1]; 0.484 µM in assay [2]; 0.346 µM in assay [4]; 0.708 µM in [5]; 0.262 µM in assay [6]; 0.434 µM in assay [8]. Also, the figures for the GI50 in [9] and in assay [10] were 1.15 µM and 1.3 µM, respectively. The TGI in assay [1] was > 32.1 µM; in assay [2] it was > 21.7 µM; in [3] it was > 100 µM; in [4] it was > 100 µM; in [5] it was 65.6 µM; in assay [6], 0.795 µM. The total growth inhibition concentration (TGI) is 5.89 µM in assay [8], > 100 µM in assay [9] and 36.5 µM in [10].

Regarding `CC(=O)N1N=C2/C(=C/c3ccccc3)CC(C)CC2C1c1ccccc1` (centres undefined), the GI50 is 17.7 µM in assay [1]; 16.1 µM in [2]; 12.1 µM in [3]; 10.1 µM in [4]; 14.8 µM in assay [5]; 17.4 µM in [6]. In addition, the GI50 in assay [7] is 11.6 µM; in assay [8] it was 17.1 µM; in [9] it was 14.8 µM; in assay [10], 14.5 µM. For the same molecule, the TGI in assay [1] came to 34.8 µM; in assay [2], 33.5 µM; in assay [3], 41.9 µM; in assay [4], 22.6 µM; in assay [5], 30.6 µM; in assay [6], 32.7 µM. Also, the TGI in assay [7] came to 25.4 µM; in assay [8], 40.3 µM; in assay [9] it was 30.4 µM; in assay [10], 30.1 µM.

As for `C1=Cc2ccccc2Nc2ccccc21`, the GI50 in [1] is > 100 µM; in [2] it was > 100 µM; in [3] it was > 100 µM; in [4], 74.7 µM; in assay [5] it was > 100 µM; in [6], > 100 µM. The GI50 in [7], in assay [8], in [9] and in assay [10] was > 100 µM each time. The TGI in [1], in assay [2], in [3], in assay [4], in assay [5] and in assay [6] was > 100 µM in each case. In addition, the TGI in assay [7], in assay [8], in assay [9] and in assay [10] was > 100 µM each time.
